Among the data in ChEMBL document CHEMBL1152723, “Remarkable enhancement in the DNA-binding ability of C2-fluoro substituted pyrrolo[2,1-c][1,4]benzodiazepines and their anticancer potential” (2009) are GI50, ΔTm and Activity values, retold here.

What is called GI50 is the concentration that inhibits growth by half. Read a high GI50 as less potent growth inhibition. One may read the ΔTm as the shift of the melting midpoint relative to a reference.

One assay concerns 786-0. As to the kind of experiment: Growth inhibition of human 786-0 cells after 48 hrs by sulforhodamine B protein assay. The class given is functional. The settings on record: 786-0, 48 h.
In the next assay the test system is RXF 393. As to the kind of experiment: Growth inhibition of human […] cells after 48 hrs by sulforhodamine B protein assay. The class given is functional. The settings on record: RXF 393, 48 h. (In general: Sulforhodamine B stains cellular protein and so reports cell mass.)
The subject of a further assay is MDA-MB-231. Kind of assay: Growth inhibition of human MDA-MB-231 cells after 48 hrs by sulforhodamine B protein assay. The following applies: MDA-MB-231, 48 h. The class given is functional.
The nature of assay [1]: Growth inhibition of human Hs 578T cells after 48 hrs by sulforhodamine B protein assay. The class given is functional.
In the next assay the test system is MDA-MB-435. Kind of assay: Growth inhibition of human MDA-MB-435 cells after 48 hrs by sulforhodamine B protein assay. The class given is functional. The settings on record: MDA-MB-435, 48 h.
Another assay relates to BT-549. Kind of assay: Growth inhibition of human BT549 cells after 48 hrs by sulforhodamine B protein assay. The settings on record: BT-549, 48 h. The class given is functional.
The test system of another assay is DNA. Kind of assay: Binding affinity to calf thymus DNA assessed as change in melting temperature at a compound to DNA molar ratio of 1:5 at pH 7 by thermal denaturation assay. The following applies: Bos taurus. The class given is nucleic-acid assay.
The target of assay [2] is T1, Type II restriction enzyme BamHI (Bacillus amyloliquefaciens) (UniProt P23940).
T1 sequence (whole entry): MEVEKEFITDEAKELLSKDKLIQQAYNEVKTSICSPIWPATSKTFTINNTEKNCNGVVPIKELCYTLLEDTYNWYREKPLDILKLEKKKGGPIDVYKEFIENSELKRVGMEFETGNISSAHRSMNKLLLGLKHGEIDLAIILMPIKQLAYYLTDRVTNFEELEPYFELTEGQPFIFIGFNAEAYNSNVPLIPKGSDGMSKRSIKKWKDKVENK
As to the kind of experiment: Inhibition of Bacillus amyloliquefaciens BamH1-mediated pBR322 cleavage after 16 hrs by RED100-restriction endonuclease digestion assay.

The subject of the next assay is KM12. As to the kind of experiment: Growth inhibition of human KM12 cells after 48 hrs by sulforhodamine B protein assay. The class given is functional. The following applies: KM12, 48 h.
A further assay concerns SK-MEL-28. Kind of assay: Growth inhibition of human SK-MEL-28 cells after 48 hrs by sulforhodamine B protein assay. It counts as functional. The settings on record: SK-MEL-28, 48 h.
The next assay concerns SK-MEL-5. As to the kind of experiment: Growth inhibition of human SK-MEL-5 cells after 48 hrs by sulforhodamine B protein assay. The class given is functional. The settings on record: SK-MEL-5, 48 h.
For the next assay, the system named is UACC-257. As to the kind of experiment: Growth inhibition of human UACC257 cells after 48 hrs by sulforhodamine B protein assay. It counts as functional. The settings on record: UACC-257, 48 h.

Turning to `COc1cc2c(cc1OCCCN1CCN(CCCOc3cc4c(cc3OC)C(=O)N3CC(F)C[C@H]3C=N4)CC1)N=C[C@@H]1CC(F)CN1C2=O` (some centres not stated), the GI50 is < 30 nM with 786-0; 110 nM in the assay with RXF 393; 130 nM in the assay with MDA-MB-231; < 40 nM in [1]; < 30 nM in the assay with MDA-MB-435; < 90 nM in the assay with BT-549. The GI50 with KM12 was 100 nM; in the assay on SK-MEL-28 it was < 30 nM; in the assay on SK-MEL-5, < 40 nM; with UACC-257, 1270 nM. Further, the ΔTm in the assay on DNA amounted to 37 °C. Also, the Activity entry in assay [2] was “Dose-dependent effect”.
